# Reference: patent publication US10981860B2, “Caspase inhibitor and pharmaceutical composition, use and therapeutic method thereof” (Chia Tai Tianqing Pharmaceutical Group Co., Ltd., priority 2016, dated 2021)
# System: Anti-Fas-induced Jurkat cells
# Assay: Anti-Fas-induced apoptosis of Jurkat cells in vitro (Caspase 3 substrate Ac-DEVD-AMC fluorescence)
# Assay type: cell-based
# Conditions: Homo sapiens; Jurkat Clone E6-1, Anti-Fas 50 ng/mL, 24 hours, Ac-DEVD-AMC 10 μM
row,SMILES,EC50 [nM]
1,"CC(C)(C)c1ccccc1NC(=O)C(=O)N1CCCC[C@H](C(=O)N[C@@H](CC(=O)O)C(=O)COc2c(F)c(F)cc(F)c2F)C1 (single isomer, unassigned) [Example 9]",65.5
2,"CC(C)(C)c1ccccc1NC(=O)C(=O)N1CCCC[C@@H](C(=O)N[C@@H](CC(=O)O)C(=O)COc2c(F)c(F)cc(F)c2F)C1 (single isomer, unassigned) [Example 10]",41.6
3,CC(C)(C)c1ccccc1NC(=O)C(=O)N[C@H]1CC[C@H](C(=O)N[C@@H](CC(=O)O)C(=O)COc2c(F)c(F)cc(F)c2F)CC1 [Example 6],552
4,CC(C)(C)c1ccccc1NC(=O)C(=O)N1CCOC(C(=O)N[C@@H](CC(=O)O)C(=O)COc2c(F)c(F)cc(F)c2F)C1 (stereo partly drawn) [Example 8],124
5,CC(C)(C)c1ccccc1NC(=O)C(=O)N1CC=CC[C@H](C(=O)N[C@@H](CC(=O)O)C(=O)COc2c(F)c(F)cc(F)c2F)C1 [Example 11],27.2
6,CC(C)(C)c1ccccc1NC(=O)C(=O)N1CC=CC[C@@H](C(=O)N[C@@H](CC(=O)O)C(=O)COc2c(F)c(F)cc(F)c2F)C1 [Example 12],52.5
7,O=C(O)C[C@H](NC(=O)C1CC2CCC(C1)N2C(=O)OCc1ccccc1)C(=O)COc1c(F)c(F)cc(F)c1F (stereo partly drawn) [Example 14],275
8,CC(C)(C)c1ccccc1NC(=O)C(=O)N1C[C@H](C(=O)N[C@@H](CC(=O)O)C(=O)COc2c(F)c(F)cc(F)c2F)Cc2ccccc21 [Example 16],417
9,CC(C)(C)c1ccccc1NC(=O)C(=O)N1C[C@@H](C(=O)N[C@@H](CC(=O)O)C(=O)COc2c(F)c(F)cc(F)c2F)Cc2ccccc21 [Example 17],289
10,CC(C)(C)c1ccccc1NC(=O)C(=O)N1CC[C@H](C(=O)N[C@@H](CC(=O)O)C(=O)COc2c(F)c(F)cc(F)c2F)C2CCCCC21 (stereo partly drawn) [Example 18],557
11,CC(C)(C)c1ccccc1NC(=O)C(=O)N1CC[C@@H](C(=O)N[C@@H](CC(=O)O)C(=O)COc2c(F)c(F)cc(F)c2F)C2CCCCC21 (stereo partly drawn) [Example 19],224
12,CC1(C(=O)N[C@@H](CC(=O)O)C(=O)COc2c(F)c(F)cc(F)c2F)CCN(C(=O)C(=O)Nc2ccccc2C(C)(C)C)CC1 [Example 20],698
13,CC(C)(C)c1ccccc1NC(=O)C(=O)N1CCC(F)(C(=O)N[C@@H](CC(=O)O)C(=O)COc2c(F)c(F)cc(F)c2F)CC1 [Example 21],97.9
14,O=C(O)C[C@H](NC(=O)C1CCN(C(=O)OCc2ccccc2)C1)C(=O)COc1c(F)c(F)cc(F)c1F (stereo partly drawn) [Example 22],34.2
15,O=C(O)C[C@H](NC(=O)c1ccc(NC(=O)OCc2ccccc2)cc1)C(=O)COc1c(F)c(F)cc(F)c1F [Example 23],215
16,O=C(O)C[C@H](NC(=O)C1CN(C(=O)OCc2ccccc2)CCO1)C(=O)COc1c(F)c(F)cc(F)c1F (stereo partly drawn) [Example 24],49.7
17,O=C(O)C[C@H](NC(=O)[C@H]1CC[C@H](NC(=O)OCc2ccccc2)CC1)C(=O)COc1c(F)c(F)cc(F)c1F [Example 25],70.7
18,O=C(O)C[C@H](NC(=O)[C@@H]1CCCN(C(=O)C2CCCC2)C1)C(=O)COc1c(F)c(F)cc(F)c1F [Example 26],12.6
19,O=C(O)C[C@H](NC(=O)[C@@H]1CCCN(C(=O)C(=O)NC2CCCC2)C1)C(=O)COc1c(F)c(F)cc(F)c1F [Example 27],21.1
20,O=C(O)C[C@H](NC(=O)[C@@H]1CCCN(C(=O)OC2CCCC2)C1)C(=O)COc1c(F)c(F)cc(F)c1F [Example 28],22.1
21,O=C(O)C[C@H](NC(=O)[C@@H]1CCCN(C(=O)NC2CCCC2)C1)C(=O)COc1c(F)c(F)cc(F)c1F [Example 29],57.4

row,SMILES,EC50 [nM]
1,CC(C)OC(=O)N1CCC[C@@H](C(=O)N[C@@H](CC(=O)O)C(=O)COc2c(F)c(F)cc(F)c2F)C1 [Example 30],14.5
2,O=C(O)C[C@H](NC(=O)[C@@H]1CCCN(C(=O)Oc2ccccc2)C1)C(=O)COc1c(F)c(F)cc(F)c1F [Example 31],21.4
3,O=C(O)C[C@H](NC(=O)C1CCN(C(=O)c2nccc3ccccc23)CC1)C(=O)COc1c(F)c(F)cc(F)c1F [Example 34],43
4,O=C(O)C[C@H](NC(=O)C1CCN(C(=O)c2ccccn2)CC1)C(=O)COc1c(F)c(F)cc(F)c1F [Example 35],25.4
5,O=C(O)C[C@H](NC(=O)C1CCN(C(=O)c2cccnc2)CC1)C(=O)COc1c(F)c(F)cc(F)c1F [Example 36],10.3
6,O=C(O)C[C@H](NC(=O)C1CCN(C(=O)c2ccncc2)CC1)C(=O)COc1c(F)c(F)cc(F)c1F [Example 37],23.9
7,O=C(O)C[C@H](NC(=O)C1CCN(C(=O)c2ncccn2)CC1)C(=O)COc1c(F)c(F)cc(F)c1F [Example 38],22
8,Cc1c(F)cc(F)c(F)c1OCC(=O)[C@H](CC(=O)O)NC(=O)C1CCN(C(=O)c2noc3ccccc23)CC1 [Example 41],18.8
9,O=C(O)C[C@H](NC(=O)C1CCN(C(=O)c2nc3ccccc3[nH]2)CC1)C(=O)COc1c(F)c(F)cc(F)c1F [Example 42],25.2
10,Cn1c(C(=O)N2CCC(C(=O)N[C@@H](CC(=O)O)C(=O)COc3c(F)c(F)cc(F)c3F)CC2)nc2ccccc21 [Example 43],38.6
11,Cn1c(C(=O)N2CCC(C(=O)N[C@@H](CC(=O)OC(C)(C)C)C(=O)COc3c(F)c(F)cc(F)c3F)CC2)cc2ccccc21 [Example 44],39.7
12,O=C(O)C[C@H](NC(=O)C1CCN(C(=O)c2nsc3ccccc23)CC1)C(=O)COc1c(F)c(F)cc(F)c1F [Example 51],27.2
13,CC1(C(=O)N2CCC(C(=O)N[C@@H](CC(=O)O)C(=O)COc3c(F)c(F)cc(F)c3F)CC2)CCCC1 [Example 52],21
14,CC(C)(C)c1ccccc1C(=O)N1CCC(C(=O)N[C@@H](CC(=O)O)C(=O)COc2c(F)c(F)cc(F)c2F)CC1 [Example 53],67.5
15,O=C(O)C[C@H](NC(=O)C1CCN(C(=O)c2nc3ccccc3s2)CC1)C(=O)COc1c(F)c(F)cc(F)c1F [Example 58],16.6
16,CC(C)(C)c1cc(Cl)ccc1NC(=O)C(=O)N1CCC(C(=O)N[C@@H](CC(=O)O)C(=O)COc2c(F)c(F)cc(F)c2F)CC1 [Example 59],157
17,O=C(O)C[C@H](NC(=O)C1CCN(C(=O)C(=O)Nc2ccc(Cl)cc2C(F)(F)F)CC1)C(=O)COc1c(F)c(F)cc(F)c1F [Example 60],49.6
18,O=C(O)C[C@H](NC(=O)C1CCN(C(=O)C(=O)NC2CCCC2)CC1)C(=O)COc1c(F)c(F)cc(F)c1F [Example 61],50.4
19,O=C(O)C[C@H](NC(=O)C1CCN(C(=O)C(=O)NCCC2CCCC2)CC1)C(=O)COc1c(F)c(F)cc(F)c1F [Example 62],42.4
20,O=C(O)C[C@H](NC(=O)C1CCN(C(=O)C(=O)NCC2CCCC2)CC1)C(=O)COc1c(F)c(F)cc(F)c1F [Example 63],38
21,CN(C(=O)C(=O)N1CCC(C(=O)N[C@@H](CC(=O)O)C(=O)COc2c(F)c(F)cc(F)c2F)CC1)c1ccccc1C(C)(C)C [Example 64],64.7

row,SMILES,EC50 [nM]
1,O=C(O)C[C@H](NC(=O)C1CCN(C(=O)OCC(F)(F)F)CC1)C(=O)COc1c(F)c(F)cc(F)c1F [Example 67],14.6
2,CC(C)OC(=O)N1CCC(C(=O)N[C@@H](CC(=O)O)C(=O)COc2c(F)c(F)cc(F)c2F)CC1 [Example 68],23.2
3,O=C(O)C[C@H](NC(=O)C1CCN(C(=O)OCc2ccccc2)CC1)C(=O)COc1c(F)c(F)cc(F)c1F [Example 71],29.3
4,Cc1ccc(Cl)c(OC(=O)N2CCC(C(=O)N[C@@H](CC(=O)O)C(=O)COc3c(F)c(F)cc(F)c3F)CC2)c1 [Example 72],17.9
5,CC(C)[C@H]1CC[C@H](C)C[C@@H]1OC(=O)N1CCC(C(=O)N[C@@H](CC(=O)O)C(=O)COc2c(F)c(F)cc(F)c2F)CC1 [Example 77],96
6,O=C(O)C[C@H](NC(=O)C1CCN(C(=O)NCc2ccccc2)CC1)C(=O)COc1c(F)c(F)cc(F)c1F [Example 78],35.9
7,O=C(O)C[C@H](NC(=O)C1CCN(C(=O)NC2CCCC2)CC1)C(=O)COc1c(F)c(F)cc(F)c1F [Example 79],26
8,O=C(O)C[C@H](NC(=O)C1CCN(C(=O)Nc2ccccc2)CC1)C(=O)COc1c(F)c(F)cc(F)c1F [Example 80],17.5
9,O=C(O)C[C@H](NC(=O)C1CCN(S(=O)(=O)c2ccccc2)CC1)C(=O)COc1c(F)c(F)cc(F)c1F [Example 81],959
10,O=C(O)C[C@H](NC(=O)C1CCN(c2ncc3cc(F)ccc3n2)CC1)C(=O)COc1c(F)c(F)cc(F)c1F [Example 82],44
11,O=C(O)C[C@H](NC(=O)C1CCN(c2nc3ccccc3o2)CC1)C(=O)COc1c(F)c(F)cc(F)c1F [Example 83],24
12,O=C(O)C[C@H](NC(=O)C1CCN(c2noc3ccccc23)CC1)C(=O)COc1c(F)c(F)cc(F)c1F [Example 84],35
13,O=C(O)C[C@H](NC(=O)C1CCN(C(=O)c2ccno2)CC1)C(=O)COc1c(F)c(F)cc(F)c1F [Example 85],16.3
14,O=C(O)C[C@H](NC(=O)C1CCN(C(=O)C(=O)Nc2cc(Cl)ccc2C(F)(F)F)CC1)C(=O)COc1c(F)c(F)cc(F)c1F [Example 88],33.8
15,O=C(O)C[C@H](NC(=O)C1CCN(C(=O)N2CCCC2)CC1)C(=O)COc1c(F)c(F)cc(F)c1F [Example 89],8.98
16,O=C(O)C[C@H](NC(=O)C1CCN(C(=O)C(=O)N2CCCC2)CC1)C(=O)COc1c(F)c(F)cc(F)c1F [Example 90],44.2
17,O=C(O)C[C@H](NC(=O)C1CCN(C(=O)OCc2ccc(Cl)cc2Cl)CC1)C(=O)COc1c(F)c(F)cc(F)c1F [Example 91],62
18,Cc1ccc(C)c(CCNC(=O)C(=O)N2CCC(C(=O)N[C@@H](CC(=O)O)C(=O)COc3c(F)c(F)cc(F)c3F)CC2)c1 [Example 94],43.9
19,Cc1ccc(C)c(CNC(=O)C(=O)N2CCC(C(=O)N[C@@H](CC(=O)O)C(=O)COc3c(F)c(F)cc(F)c3F)CC2)c1 [Example 95],33.2
20,O=C(O)C[C@H](NC(=O)C1CCN(C(=O)OCc2cc(Cl)ccc2Cl)CC1)C(=O)COc1c(F)c(F)cc(F)c1F [Example 96],52.8
21,CC(C)[C@@H]1CC[C@@H](C)C[C@H]1OC(=O)N1CCC(C(=O)N[C@@H](CC(=O)O)C(=O)COc2c(F)c(F)cc(F)c2F)CC1 [Example 97],112
